Assay [1] has as its target T1, Integrin alpha-IIb/beta-3 (Homo sapiens, UniProt P05106+P08514). Briefly: Inhibition of human platelet aggregation induced by ADP at 100 uM. The format is functional.
For assay [2], the system named is Integrin alpha-IIb/beta-3 (Canis lupus familiaris). Briefly: Inhibition of ADP-mediated platelet aggregation over 6 hr. The following applies: concentration not given here.
A short description of assay [3]: Inhibition of interaction between HUVEC cells and Vitronectin. In kind it is cell-based, Homo sapiens.
Assay [4] has as its target T2, Integrin alpha-M/beta-2 (Homo sapiens, UniProt P05107+P11215). Put plainly: Inhibition of Mac-1 integrin (alphaM-beta2). In kind it is protein-complex assay.
Another assay has as its target Integrin alpha-5/beta-1 (Homo sapiens, UniProt P05556+P08648). Put plainly: Inhibition of interaction between HUVEC cells and fibronectin. The format is cell-based.
For assay [5], the target named is T1, Integrin alpha-IIb/beta-3. Put plainly: Inhibition of Fibrinogen Receptor integrin alphaIIb-beta3 in ELISA. In kind it is protein-complex assay.
Target sequence in this assay (P05106 27-788 limits assumed): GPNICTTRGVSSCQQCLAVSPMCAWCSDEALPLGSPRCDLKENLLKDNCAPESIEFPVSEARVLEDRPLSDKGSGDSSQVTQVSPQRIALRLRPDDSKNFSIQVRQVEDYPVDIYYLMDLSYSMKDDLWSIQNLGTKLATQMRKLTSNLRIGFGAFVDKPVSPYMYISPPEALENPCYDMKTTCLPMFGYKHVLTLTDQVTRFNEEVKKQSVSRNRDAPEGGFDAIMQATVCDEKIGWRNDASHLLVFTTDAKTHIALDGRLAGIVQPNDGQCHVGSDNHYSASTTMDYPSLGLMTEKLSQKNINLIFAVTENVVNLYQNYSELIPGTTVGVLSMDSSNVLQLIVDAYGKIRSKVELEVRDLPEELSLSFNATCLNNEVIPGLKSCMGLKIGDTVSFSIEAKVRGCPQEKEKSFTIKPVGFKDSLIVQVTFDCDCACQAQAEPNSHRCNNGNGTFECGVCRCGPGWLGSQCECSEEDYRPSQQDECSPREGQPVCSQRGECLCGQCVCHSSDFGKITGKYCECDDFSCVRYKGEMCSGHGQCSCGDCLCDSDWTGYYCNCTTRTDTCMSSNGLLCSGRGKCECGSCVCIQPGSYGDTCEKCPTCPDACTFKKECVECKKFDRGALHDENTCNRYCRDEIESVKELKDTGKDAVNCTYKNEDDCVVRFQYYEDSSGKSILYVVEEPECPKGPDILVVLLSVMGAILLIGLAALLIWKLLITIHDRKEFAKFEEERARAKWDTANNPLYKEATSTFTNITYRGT
Target sequence in this assay (P08514 32-887 limits assumed): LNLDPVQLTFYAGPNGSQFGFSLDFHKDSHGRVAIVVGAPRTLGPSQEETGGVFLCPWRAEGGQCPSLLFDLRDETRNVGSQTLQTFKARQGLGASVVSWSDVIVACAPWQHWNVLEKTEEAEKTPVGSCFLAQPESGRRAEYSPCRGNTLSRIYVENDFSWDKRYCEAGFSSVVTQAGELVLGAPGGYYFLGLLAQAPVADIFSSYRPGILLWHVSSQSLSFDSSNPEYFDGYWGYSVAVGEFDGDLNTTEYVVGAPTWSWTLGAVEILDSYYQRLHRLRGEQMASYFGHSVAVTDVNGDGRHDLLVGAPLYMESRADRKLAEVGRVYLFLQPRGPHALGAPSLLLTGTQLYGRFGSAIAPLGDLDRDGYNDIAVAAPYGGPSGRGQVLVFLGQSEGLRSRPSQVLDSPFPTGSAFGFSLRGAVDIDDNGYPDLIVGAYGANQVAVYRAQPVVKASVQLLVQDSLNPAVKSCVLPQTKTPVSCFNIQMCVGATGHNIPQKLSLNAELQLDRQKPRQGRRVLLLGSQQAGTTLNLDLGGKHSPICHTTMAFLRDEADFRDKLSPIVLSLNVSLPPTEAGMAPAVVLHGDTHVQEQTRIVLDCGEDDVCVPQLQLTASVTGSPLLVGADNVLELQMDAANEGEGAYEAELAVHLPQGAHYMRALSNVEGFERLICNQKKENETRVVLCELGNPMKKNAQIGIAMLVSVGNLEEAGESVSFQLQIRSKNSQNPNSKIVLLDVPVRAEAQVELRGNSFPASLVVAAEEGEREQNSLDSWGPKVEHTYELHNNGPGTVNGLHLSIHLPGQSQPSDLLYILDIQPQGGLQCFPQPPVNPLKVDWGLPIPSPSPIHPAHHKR
Target sequence in this assay (P08514 891-1039 limits assumed): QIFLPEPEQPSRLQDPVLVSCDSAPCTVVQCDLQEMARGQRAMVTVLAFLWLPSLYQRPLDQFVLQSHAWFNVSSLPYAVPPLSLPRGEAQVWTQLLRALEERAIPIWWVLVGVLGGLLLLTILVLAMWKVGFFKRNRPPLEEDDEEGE
The target of assay [6] is T1, Integrin alpha-IIb/beta-3. Put plainly: Inhibition of [125I]fibrinogen binding to activated human platelets. The format is functional.
Target sequence in this assay (P05106 27-788 limits assumed): as the sequence (P05106 27-788 limits assumed) above
Target sequence in this assay (P08514 32-887 limits assumed): as the sequence (P08514 32-887 limits assumed) above
Target sequence in this assay (P08514 891-1039 limits assumed): as the sequence (P08514 891-1039 limits assumed) above
In assay [7] the target is T2, Integrin alpha-M/beta-2. Briefly: Inhibition of Mac-1 interaction with ICAM. In kind it is protein-complex assay.
The target in the next assay is Integrin alpha-4/beta-1 (Homo sapiens, UniProt P05556+P13612). Put plainly: Inhibition of VLA-4 integrin alpha4-beta1 interaction with VCAM. In kind it is protein-complex assay.

Where only a bound is given, the exact number is not on record here.

T2 sequence (P05107 23-769 limits assumed, other chains not shown): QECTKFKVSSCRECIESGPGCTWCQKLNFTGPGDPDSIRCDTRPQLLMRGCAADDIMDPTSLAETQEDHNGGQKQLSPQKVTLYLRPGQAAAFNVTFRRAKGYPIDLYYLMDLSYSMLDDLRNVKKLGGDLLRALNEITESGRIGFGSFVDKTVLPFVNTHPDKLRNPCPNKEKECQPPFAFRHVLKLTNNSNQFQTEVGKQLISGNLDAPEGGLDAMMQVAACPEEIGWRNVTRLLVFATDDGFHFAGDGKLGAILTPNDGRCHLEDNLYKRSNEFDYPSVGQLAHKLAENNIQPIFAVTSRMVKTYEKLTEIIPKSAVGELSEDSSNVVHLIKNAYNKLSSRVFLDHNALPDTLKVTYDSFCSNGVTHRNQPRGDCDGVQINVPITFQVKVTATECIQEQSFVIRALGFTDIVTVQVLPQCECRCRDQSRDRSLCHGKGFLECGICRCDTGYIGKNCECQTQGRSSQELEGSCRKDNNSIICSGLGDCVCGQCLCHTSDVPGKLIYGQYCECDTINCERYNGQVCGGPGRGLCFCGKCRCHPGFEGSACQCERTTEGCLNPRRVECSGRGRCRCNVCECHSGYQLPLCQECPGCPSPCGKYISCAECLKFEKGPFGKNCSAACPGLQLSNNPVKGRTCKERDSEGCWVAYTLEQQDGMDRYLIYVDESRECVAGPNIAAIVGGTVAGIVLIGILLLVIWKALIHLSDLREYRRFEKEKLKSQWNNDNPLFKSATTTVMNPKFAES
Integrin alpha-4/beta-1, sequence (P05556 whole entry): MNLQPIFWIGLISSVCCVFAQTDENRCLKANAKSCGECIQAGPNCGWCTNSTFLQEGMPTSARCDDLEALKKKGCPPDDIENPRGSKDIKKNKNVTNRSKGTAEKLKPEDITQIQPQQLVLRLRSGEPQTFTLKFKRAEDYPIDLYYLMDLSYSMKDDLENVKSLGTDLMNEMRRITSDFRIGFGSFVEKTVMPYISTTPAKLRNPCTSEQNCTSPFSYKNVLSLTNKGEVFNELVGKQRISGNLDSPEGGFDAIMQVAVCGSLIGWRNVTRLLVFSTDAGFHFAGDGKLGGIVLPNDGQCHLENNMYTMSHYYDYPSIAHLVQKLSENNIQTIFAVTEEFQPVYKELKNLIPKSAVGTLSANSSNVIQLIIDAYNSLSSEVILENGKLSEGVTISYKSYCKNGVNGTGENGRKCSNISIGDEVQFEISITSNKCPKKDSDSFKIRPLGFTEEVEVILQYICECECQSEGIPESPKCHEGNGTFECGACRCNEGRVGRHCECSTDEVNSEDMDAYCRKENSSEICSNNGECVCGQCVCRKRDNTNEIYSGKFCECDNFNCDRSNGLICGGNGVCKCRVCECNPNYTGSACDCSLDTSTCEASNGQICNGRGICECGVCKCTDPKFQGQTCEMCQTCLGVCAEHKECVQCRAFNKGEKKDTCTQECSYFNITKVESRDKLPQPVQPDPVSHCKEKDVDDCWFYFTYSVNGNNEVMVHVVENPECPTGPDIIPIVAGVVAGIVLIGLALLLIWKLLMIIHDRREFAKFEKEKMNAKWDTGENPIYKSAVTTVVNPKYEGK
Integrin alpha-4/beta-1, sequence (P13612 whole entry): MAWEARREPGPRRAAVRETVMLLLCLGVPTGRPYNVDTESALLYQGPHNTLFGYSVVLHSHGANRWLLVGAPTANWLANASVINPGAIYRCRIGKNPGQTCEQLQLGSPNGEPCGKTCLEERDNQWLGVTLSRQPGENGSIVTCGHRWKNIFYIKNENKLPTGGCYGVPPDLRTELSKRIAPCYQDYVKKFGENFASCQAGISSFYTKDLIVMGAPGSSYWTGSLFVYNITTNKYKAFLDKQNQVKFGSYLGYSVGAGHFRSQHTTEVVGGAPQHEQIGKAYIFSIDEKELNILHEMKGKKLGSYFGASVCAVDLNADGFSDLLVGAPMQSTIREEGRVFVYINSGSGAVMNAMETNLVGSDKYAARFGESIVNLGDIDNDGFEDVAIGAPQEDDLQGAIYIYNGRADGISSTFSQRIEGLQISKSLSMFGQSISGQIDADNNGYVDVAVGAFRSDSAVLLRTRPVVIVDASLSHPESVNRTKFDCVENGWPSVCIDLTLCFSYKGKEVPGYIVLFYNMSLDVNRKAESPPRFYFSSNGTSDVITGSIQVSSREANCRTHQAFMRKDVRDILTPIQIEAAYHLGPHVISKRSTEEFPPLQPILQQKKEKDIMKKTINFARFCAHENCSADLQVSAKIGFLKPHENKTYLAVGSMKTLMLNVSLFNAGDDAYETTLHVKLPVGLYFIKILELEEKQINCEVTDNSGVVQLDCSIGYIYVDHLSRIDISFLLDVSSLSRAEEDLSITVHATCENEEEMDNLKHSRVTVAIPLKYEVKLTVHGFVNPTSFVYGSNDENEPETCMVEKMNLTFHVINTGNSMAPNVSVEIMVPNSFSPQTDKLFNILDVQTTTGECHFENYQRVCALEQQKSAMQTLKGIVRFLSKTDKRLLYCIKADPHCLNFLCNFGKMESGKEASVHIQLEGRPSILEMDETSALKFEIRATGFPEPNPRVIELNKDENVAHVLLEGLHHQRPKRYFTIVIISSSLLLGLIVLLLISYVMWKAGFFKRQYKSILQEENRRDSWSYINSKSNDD

As a reminder, the inhibition is the change of the read-out against control, counted positive when it falls. Higher therefore signals a strong effect. In [1], `O=C(O)CCN1C(=O)CC2(CC(CCC3CCNCC3)=NO2)C1=O` (stereo unspecified) registered an inhibition of 16.6%.

`O=C(O)CCCN1C(=O)CC2(CC(CCCC3CCNCC3)=NO2)C1=O` (stereo unspecified) returned an inhibition in assay [1] of 24%.

In the case of `O=C(O)CCCN1C(=O)CC2(CC(CCC3CCNCC3)=NO2)C1=O` (stereo unspecified), the inhibition in assay [1] is 16.3%.

As for `CCOC(=O)CCNC(=O)CC1CC(c2ccc(C(=N)N)cc2)=NO1` (stereo unspecified), the inhibition in assay [2] was 90%.

In general, IC50 refers to the midpoint of a concentration-inhibition curve. Read a high IC50 as weaker potency in that assay. As to `N=C(N)c1ccc(C2=NOC(CC(=O)NCCC(=O)O)C2)cc1` (stereo unspecified), the IC50 in assay [3] was 200 µM; at Integrin alpha-M/beta-2 [4], greater than 100 µM; against Integrin alpha-5/beta-1, 180 µM; in assay [5], 0.0011 µM; in [6], 0.01 µM; on Integrin alpha-M/beta-2 [7] it was 100 µM. For the same compound, the IC50 at Integrin alpha-4/beta-1 is greater than 100 µM.

The values above are taken from ChEMBL document CHEMBL1130019, “Discovery of potent isoxazoline glycoprotein IIb/IIIa receptor antagonists” (J Med Chem, 1997).
